# Data: patent US20050004126A1 (priority 2001, published 2005)
# Where “and” joins values, the source holds several entries; their conditions need not be identical. Equal values may be shown once.
# Biological target: MMP-13CD (catalytic domain of collagenase 3) (Homo sapiens, UniProt P45452)
# Assay: Thiopeptolide hydrolysis assay, MMP-13;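 further: inhibition of enzymatic thiopeptolide substrate cleavage (100 µM) in pH 6.0 MES buffer with CaCl2 and DTNB, comparing hydrolysis with versus without inhibitor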
# Method: They measure the amount by which a test compound reduces the hydrolysis of a thiopeptolide substrate caused by a matrix metalloproteinase enzyme.
# Thiopeptolide substrates show virtually no decomposition or hydrolysis in the absence of a matrix metalloproteinase enzyme. A typical thiopeptolide substrate commonly utilized for assays is Ac-Pro-Leu-Gly-thioester-Leu-Leu-Gly-OEt. A 100 μL assay mixture will contain 50 mM of 2-morpholinoethane sulfonic acid monohydrate (MES, pH 6.0) 10 mM CaCl2, 100 μM thiopeptolide substrate, and 1 mM 5,5′-dithio-bis-(2-nitro-benzoic acid) (DTNB). […] Assays are carried out with and without matrix metalloproteinase inhibitor compounds, and the amount of hydrolysis is compared for a determination of inhibitory activity of the test compounds.
Compound,"IC50 (IC50 μM, Table V, MMP-13) [µM]",further results
"COc1ccc(CNC(=O)c2cnc3c(c2)c(=O)n(Cc2ccc(C#N)cc2)c(=O)n3C)cc1 [3-(4-Cyano-benzyl)-1-methyl-2,4-dioxo-1,2,3,4-tetrahydro-pyrido[2,3-d] pyrimidine-6-carboxylic acid 4-methoxy-benzylamide]",,"IC50 (MMP13 IC50 μM, Table IVb): 0.016 µM"
"COc1ccc(CNC(=O)c2cnc3c(c2)c(=O)n(Cc2ccc(F)cc2)c(=O)n3C)cc1 [3-(4-Fluoro-benzyl)-1-methyl-2,4-dioxo-1,2,3,4-tetrahydro-pyrido[2,3-d]pyrimidine-6-carboxylic acid 4-methoxy-benzylamide]",,"IC50 (MMP13 IC50 μM, Table IVb): 0.032 µM"
"Cn1c(=O)n(Cc2ccccc2)c(=O)c2cc(C(=O)NCc3ccc4c(c3)OCO4)cnc21 [3-Benzyl-1-methyl-2,4-dioxo-1,2,3,4-tetrahydro-pyrido[2,3-d] pyrimidine-6-carboxylic acid (1,3-benzodioxol-5-ylmethyl)-amide]",,"IC50 (MMP13 IC50 μM, Table IVb): 0.007 µM"
"Cn1c(=O)n(Cc2ccccc2)c(=O)c2cc(C(=O)NCc3ccc4c(c3)OCO4)ncc21 [3-Benzyl-1-methyl-2,4-dioxo-1,2,3,4-tetrahydro-pyrido[3,4-d]pyrimidine-6-carboxylic acid (1,3-benzodioxol-5-ylmethyl)-amide]",,"IC50 (MMP13 IC50 μM, Table IVb): 0.00078 µM"
"Cn1c(=O)n(Cc2ccccc2)c(=O)c2cc(C(=O)CCc3ccccc3)ccc21 [3-Benzyl-1-methyl-6-(3-phenyl-propionyl)-1H-quinazoline-2,4-dione]",,"IC50 (MMP13 IC50 μM, Table IVb): 2.9 µM"
"Cn1c(=O)n(Cc2ccccc2)c(=O)c2cc(SCc3ccccc3)ccc21 [3-Benzyl-6-benzylsulfanyl-1-methyl-1H-quinazoline-2,4-dione]",,"IC50 (MMP13 IC50 μM, Table IVb): 4.1 µM"
"O=C(NCc1ccncc1)c1ccc2c(c1)c(=O)n(Cc1ccccc1)c1nncn21 [4-Benzyl-5-oxo-4,5-dihydro-[1,2,4]triazolo[4,3-a]quinazoline-7-carboxylic acid (pyridin-4-ylmethyl)-amide]",0.04,
"O=C(NCc1ccc2c(c1)OCO2)c1ccc2c(c1)c(=O)n(Cc1ccccc1)c1nccn21 [4-Benzyl-5-oxo-4,5-dihydro-imidazo[1,2-a]quinazoline-7-carboxylic acid (benzo[1,3]dioxol-5-ylmethyl)-amide]",0.165,
"O=C(NCc1ccncc1)c1ccc2c(c1)c(=O)n(Cc1ccccc1)c1nccn21 [4-Benzyl-5-oxo-4,5-dihydro-imidazo[1,2-a]quinazoline-7-carboxylic acid (pyridin-4-ylmethyl)-amide]",2.1,
"COc1ccc(CNC(=O)c2cnc3c(c2)c(=O)n(Cc2ccc(C(=O)O)cc2)c(=O)n3C)cc1 [4-[6-(4-Methoxy-benzylcarbamoyl)-1-methyl-2,4-dioxo-1,4-dihydro-2H-pyrido[2,3-d]pyrimidin-3-ylmethyl]-benzoic acid]",,"IC50 (MMP13 IC50 μM, Table IVb): 0.0016 µM"
"O=C(O)c1ccc(Cn2c(=O)c3cc(C(=O)NCc4ccncc4)ccc3n3cnnc23)cc1 [4-{7-[(Pyridin-4-ylmethyl)-carbamoyl]-5-oxo-5H-[1,2,4]triazolo[4,3-a]quinazol-4-ylmethyl} benzoic acid]",0.0042,
O=C(OCc1ccccc1)c1cc(C(=O)OCc2ccccc2)cc([N+](=O)[O-])c1 [5-Nitro-isophthalic acid dibenzyl ester],,"IC50 (MMP13 IC50 (nM), Table II): 1.5 µM"
"O=C(O)Cc1ccc(Cn2c(=O)c3cc(C(=O)NCc4ccc5c(c4)OCO5)ccc3n3cnnc23)cc1 [(4-{7-[(1,3-Benzodioxol-5-ylmethyl)-carbamoyl]-5-oxo-5H-[1,2,4]triazolo[4,3-a]quinazolin-4-ylmethyl}-phenyl)-acetic acid]",0.0011,
"O=C(OCc1ccc2c(c1)OCO2)c1cccc(C(=O)OCc2ccc3c(c2)OCO3)c1 [Isophthalic acid bis-(1,3-benzodioxol-5-ylmethyl) ester]",,"IC50 (MMP13 IC50 (nM), Table II): 0.66 µM"
"COC(=O)c1ccc(Cn2c(=O)c3cc(C(=O)NCc4ccc(OC)cc4)ncc3n(C)c2=O)cc1 [Methyl 4-[6-(4-Methoxy-benzylcarbamoyl)-1-methyl-2,4-dioxo-1,4-dihydro-2H-pyrido[3,4-d]pyrimidin-3-ylmethyl]-benzoate]",,"IC50 (MMP13 IC50 μM, Table IVb): 0.0017 µM"
"COC(=O)c1ccc(Cn2c(=O)c3cc(C(=O)NCc4ccc5c(c4)OCO5)ccc3n3cnnc23)cc1 [Methyl 4-{7-[(1,3-benzodioxol-5-ylmethyl)-carbamoyl]-5-oxo-5H-[1,2,4]triazolo[4,3-a]quinazol-4-ylmethyl}benzoate]",0.0011,
"COC(=O)Cc1ccc(Cn2c(=O)c3cc(C(=O)NCc4ccc5c(c4)OCO5)ccc3n3cnnc23)cc1 [Methyl (4-{7-[(1,3-benzodioxol-5-ylmethyl)-carbamoyll-5-oxo-5H-[1,2,4]triazolo[4,3-a]quinazolin-4-ylmethyl}-phenyl)-acetate]",0.0022,
"COc1ccc(CNC(=O)c2cc(C(=O)NCc3ccc4c(c3)OCO4)ccc2OC)cc1 [N-1,3-Benzodioxol-5-ylmethyl-4-methoxy-N′-(4-methoxy-benzyl)-isophthalamide]",,"IC50 (MMP13 IC50 (nM), Table II): 0.2 µM and 0.19 µM"
"COc1ccc(C(=O)NCc2ccc3c(c2)OCO3)cc1C(=O)NCc1ccc(Cl)cc1 [N-1,3-Benzodioxol-5-ylmethyl-N′-(4-chloro-benzyl)-4-methoxy-isophthalamide]",,"IC50 (MMP13 IC50 (nM), Table II): 0.4 µM"
"O=C(NCc1ccncc1)c1ccc2c(c1)c(=O)n(C/C=C/c1ccncc1)c1nncn21 [N-(pyridin-4-ylmethyl) 4-[3-(pyridin-4-yl)-2-propen-1-yl]-5-oxo-4H-[1,2,4]triazolo[4,3-a]quinazol-7-ylcarboxamide]",0.35,
"N#Cc1ccc(Cn2c(=O)c3cc(C(=O)NCc4ccncc4)ccc3n3cnnc23)cc1 [N-(pyridin-4ylmethyl)-4-(4-cyanobenzyl)-5-oxo-4H-[1,2,4]triazolo[4,3-a]quinazol-7-ylcarboxamide]",0.021,
"O=C(NCCCSc1ccncc1)c1ccc2c(c1)c(=O)n(Cc1ccccc1)c1nncn21 [N-[3-(4-Pyridylsulphanyl)propyl]-4-benzyl-5-oxo-4,5-dihydro[1,2,4]triazolo[4,3-a]quinazoline-7-carboxamide]",0.185,
"O=C(OCc1ccccc1)c1ccc2c(c1)c(=O)n(Cc1ccccc1)c1nncn21 [Synthesis Example 55, Benzyl 4-benzyl-5-oxo-4H-[1,2,4]triazolo[4,3-a]quinazol-7-ylcarboxylate]",0.0034,
"O=C(OCc1ccncc1)c1ccc2c(c1)c(=O)n(Cc1ccccc1)c1nncn21 [Synthesis Example 56, 4-Pyridylmethyl 4-benzyl-5-oxo-4H-[1,2,4]triazolo[4,3-a]quinazol-7-yl-carboxylate]",0.0023,
"O=C(NCc1ccc2c(c1)OCO2)c1ccc2c(c1)c(=O)n(Cc1ccccc1)c1nncn21 [Synthesis Example 57, N-(3,4-Methylenedioxybenzyl)-4-benzyl-5-oxo-4H-[1,2,4]triazolo[4,3-a]quinazol-7-ylcarboxamide]",0.004,
"N#Cc1ccc(Cn2c(=O)c3cc(C(=O)NCc4ccc5c(c4)OCO5)ccc3n3cnnc23)cc1 [Synthesis Example 58, N-(3,4-Methylenedioxybenzyl)-4-(4-cyanobenzyl)-5-oxo-4H-[1,2,4]triazolo[4,3-a]quinazol-7-ylcarboxamide]",0.0023,
"COC(=O)c1ccc(Cn2c(=O)c3cc(C#CCc4ccc(OC)cc4)ccc3n(C)c2=O)cc1 [Synthesis Example 66, Methyl 4-{6-[3-(4-methoxyphenyl)-prop-1-ynyl]-1-methyl-2,4-dioxo-1,4-dihydro-2H-quinazolin-3-ylmethyl}-benzoate]",,"IC50 (IC50 μM, Table VII, MMP-13): 0.01 µM"

# More lines, main results first:
"IC50 (IC50 μM, Table V, MMP-13) [µM]",Compound,further results
0.0087,"COc1ccc(CNC(=O)c2ccc3c(c2)c(=O)n(Cc2ccc(C(=O)N(C)C)cc2)c2nncn32)cc1 [4-(4-Dimethylcarbamoyl-benzyl)-5-oxo-4,5-dihydro-[1,2,4]triazolo[4,3-a]quinazoline-7-carboxylic acid 4-methoxy-benzylamide]",
0.0865,"COc1ccc(CNC(=O)c2ccc3c(c2)c(=O)n(CCOc2ccc(Cl)cc2)c2nncn32)cc1 [4-[2-(4-Chloro-phenoxy)-ethyl]-5-oxo-4,5-dihydro-[1,2,4]triazolo[4,3-a]quinazoline-7-carboxylic acid 4-methoxy-benzylamide]",
0.0011,"O=C(O)c1ccc(Cn2c(=O)c3cc(C(=O)NCc4ccc(F)cc4)ccc3n3cnnc23)cc1 [4-{7-[(4-Fluoro)-benzylcarbamoyl]-5-oxo-5H-[1,2,4]triazolo[4,3-a]quinazol-4-ylmethyl}benzoic acid]",
0.0013,"COc1ccc(CNC(=O)c2ccc3c(c2)c(=O)n(Cc2ccc(CC(=O)O)cc2)c2nncn32)cc1 [(4-{7-[(4-Methoxy)-benzylcarbamoyl]-5-oxo-5H-[1,2,4]triazolo[4,3-a]quinazolin-4-ylmethyl}-phenyl)-acetic acid]",
0.0062,"O=C(O)Cc1ccc(Cn2c(=O)c3cc(C(=O)NCc4ccncc4)ccc3n3cnnc23)cc1 [(4-{7-[(Pyridin-4-yl)-methylcarbamoyl]-5-oxo-5H-[1,2,4]triazolo[4,3-a]quinazolin-4-ylmethyl}-phenyl)-acetic acid]",
0.012,"COC(=O)c1ccc(Cn2c(=O)c3cc(C(=O)NCc4ccncc4)ccc3n3cnnc23)cc1 [Methyl 4-{7-[(pyridin-4-ylmethyl)-carbamoyl]-5-oxo-5H-[1,2,4]triazolo[4,3-a]quinazol-4-ylmethyl}benzoate]",
0.0029,"COC(=O)Cc1ccc(Cn2c(=O)c3cc(C(=O)NCc4ccc(OC)cc4)ccc3n3cnnc23)cc1 [Methyl (4-{7-[(4-methoxy)-benzylcarbamoyl]-5-oxo-5H-[1,2,4]triazolo[4,3-a]quinazolin-4-ylmethyl}-phenyl)-acetate]",
0.013,"COC(=O)Cc1ccc(Cn2c(=O)c3cc(C(=O)NCc4ccncc4)ccc3n3cnnc23)cc1 [Methyl (4-{7-[(pyridin-4-yl)-methylcarbamoyl]-5-oxo-5H-[1,2,4]triazolo[4,3-a]quinazolin-4-ylmethyl}-phenyl)-acetate]",
0.0055,"COc1ccc(CNC(=O)c2ccc3c(c2)c(=O)n(Cc2ccccc2)c2nncn32)cc1 [N-(4-Methoxybenzyl)-4-benzyl-5-oxo-4,5-dihydro[1,2,4]triazolo [4,3-a]quinazoline-7-carboxamide]",
0.0011,"COc1ccc(CNC(=O)c2ccc3c(c2)c(=O)n(Cc2ccc(C(=O)O)cc2)c2nncn32)cc1 [Synthesis Example 60, 4-{7-[(4-Methoxybenzyl)-carbamoyl]-5-oxo-5H-[1,2,4]triazolo[4,3-a]quinazol-4-ylmethyl}benzoic acid]",
